Data reported in ChEMBL document CHEMBL4130359, “Indazole-based ligands for estrogen-related receptor α as potential anti-diabetic agents” (Eur J Med Chem, 2017).

Assays:
[1] = biological target: T1, Steroid hormone receptor ERR1 (Homo sapiens, UniProt P11474); assay: Antagonist activity at His6-tagged ERRalpha LBD (unknown origin) assessed as inhibition of GST-tagged SRC-2 co-activator peptide recruitment after 18 hrs by TR-FRET assay
T1 sequence (P11474 whole entry): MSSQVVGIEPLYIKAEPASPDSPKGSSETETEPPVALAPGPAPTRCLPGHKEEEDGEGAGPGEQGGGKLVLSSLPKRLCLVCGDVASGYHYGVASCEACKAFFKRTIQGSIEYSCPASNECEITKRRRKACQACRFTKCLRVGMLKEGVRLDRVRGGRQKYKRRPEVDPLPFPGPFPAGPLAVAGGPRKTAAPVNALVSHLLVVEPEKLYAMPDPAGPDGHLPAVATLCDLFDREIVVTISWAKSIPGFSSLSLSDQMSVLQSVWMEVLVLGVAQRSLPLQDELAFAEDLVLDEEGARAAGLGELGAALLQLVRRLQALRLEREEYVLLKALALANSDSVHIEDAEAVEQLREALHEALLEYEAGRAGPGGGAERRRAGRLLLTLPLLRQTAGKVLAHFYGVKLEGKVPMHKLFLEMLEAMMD

[2] = tested on: Rattus norvegicus; assay: Decrease in fed plasma insulin level in Zucker rat sub-chronic fa/fa prediabetic model assessed as change in plasma insulin level at 10 mg/kg, po qd for 4 days measured on day 5 relative to control; type: functional; set-up: scale not given: the % may be the effect or the level left
[3] = tested on: Rattus norvegicus; assay: Decrease in fed plasma triglyceride level in Zucker rat sub-chronic fa/fa prediabetic model assessed as change in plasma triglyceride level at 10 mg/kg, po qd for 4 days measured on day 5 relative to control; type: functional; set-up: scale not given: the % may be the effect or the level left
[4] = biological target: Voltage-gated inwardly rectifying potassium channel KCNH2 (Homo sapiens, UniProt Q12809); assay: Displacement of [3H]astemizole from human ERG; conditions: for inhibition (INH): human
Sequence of Voltage-gated inwardly rectifying potassium channel KCNH2 (Q12809 whole entry): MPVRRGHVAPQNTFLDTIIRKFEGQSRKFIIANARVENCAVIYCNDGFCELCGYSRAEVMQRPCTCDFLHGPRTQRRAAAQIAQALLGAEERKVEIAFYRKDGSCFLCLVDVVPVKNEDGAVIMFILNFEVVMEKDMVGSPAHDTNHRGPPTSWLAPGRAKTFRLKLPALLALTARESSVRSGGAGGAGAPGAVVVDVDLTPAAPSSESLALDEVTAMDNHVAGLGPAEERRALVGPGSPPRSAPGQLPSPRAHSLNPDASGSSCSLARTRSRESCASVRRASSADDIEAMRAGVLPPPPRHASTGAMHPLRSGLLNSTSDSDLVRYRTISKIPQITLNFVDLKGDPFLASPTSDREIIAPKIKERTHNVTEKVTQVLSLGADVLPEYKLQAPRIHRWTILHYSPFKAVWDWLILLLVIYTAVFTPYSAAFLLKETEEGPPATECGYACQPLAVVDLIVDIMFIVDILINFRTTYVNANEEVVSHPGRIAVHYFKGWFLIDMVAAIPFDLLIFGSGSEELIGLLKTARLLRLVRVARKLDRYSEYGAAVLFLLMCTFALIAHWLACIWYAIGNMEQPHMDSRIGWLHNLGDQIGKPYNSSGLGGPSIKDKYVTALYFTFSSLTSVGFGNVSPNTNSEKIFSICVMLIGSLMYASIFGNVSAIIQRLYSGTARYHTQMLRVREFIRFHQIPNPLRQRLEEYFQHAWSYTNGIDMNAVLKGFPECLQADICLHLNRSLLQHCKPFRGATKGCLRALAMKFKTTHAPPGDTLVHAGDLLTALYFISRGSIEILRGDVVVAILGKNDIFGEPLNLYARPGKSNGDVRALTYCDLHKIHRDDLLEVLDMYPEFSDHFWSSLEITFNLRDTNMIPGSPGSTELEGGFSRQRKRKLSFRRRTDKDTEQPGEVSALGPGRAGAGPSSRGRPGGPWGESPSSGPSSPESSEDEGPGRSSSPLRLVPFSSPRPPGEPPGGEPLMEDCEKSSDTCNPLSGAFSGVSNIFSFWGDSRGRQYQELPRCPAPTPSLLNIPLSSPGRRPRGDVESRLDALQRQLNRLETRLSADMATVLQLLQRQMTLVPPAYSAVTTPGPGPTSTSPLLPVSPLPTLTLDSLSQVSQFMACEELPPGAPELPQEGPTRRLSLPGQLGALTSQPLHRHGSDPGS

[5] = Drug uptake in Sprague-Dawley rat plasma at 10 mg/kg, po via gavage by LC-MS analysis; type: ADME, organism-based; conditions: in vivo
[6] = biological target: Cytochrome P450 2C19 (Homo sapiens, UniProt P33261); assay: Inhibition of CYP2C19 (unknown origin) in microsomes; type: ADME
Sequence of Cytochrome P450 2C19 (P33261 whole entry): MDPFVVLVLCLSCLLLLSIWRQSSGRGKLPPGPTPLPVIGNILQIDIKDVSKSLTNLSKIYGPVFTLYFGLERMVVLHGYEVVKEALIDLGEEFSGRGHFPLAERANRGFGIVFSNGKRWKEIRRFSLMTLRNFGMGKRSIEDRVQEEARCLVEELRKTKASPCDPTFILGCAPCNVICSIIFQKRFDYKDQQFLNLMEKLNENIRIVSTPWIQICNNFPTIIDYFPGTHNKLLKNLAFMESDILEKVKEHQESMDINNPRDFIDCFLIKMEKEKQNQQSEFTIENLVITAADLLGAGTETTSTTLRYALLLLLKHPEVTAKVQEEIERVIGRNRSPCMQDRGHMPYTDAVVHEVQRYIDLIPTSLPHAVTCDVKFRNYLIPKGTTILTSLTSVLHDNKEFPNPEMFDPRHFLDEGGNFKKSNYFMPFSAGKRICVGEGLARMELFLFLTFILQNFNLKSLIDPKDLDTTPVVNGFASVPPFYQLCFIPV

[7] = biological target: Cytochrome P450 3A4 (Homo sapiens, UniProt P08684); assay: Inhibition of CYP3A4 (unknown origin) in microsomes; type: ADME
Sequence of Cytochrome P450 3A4 (P08684 whole entry): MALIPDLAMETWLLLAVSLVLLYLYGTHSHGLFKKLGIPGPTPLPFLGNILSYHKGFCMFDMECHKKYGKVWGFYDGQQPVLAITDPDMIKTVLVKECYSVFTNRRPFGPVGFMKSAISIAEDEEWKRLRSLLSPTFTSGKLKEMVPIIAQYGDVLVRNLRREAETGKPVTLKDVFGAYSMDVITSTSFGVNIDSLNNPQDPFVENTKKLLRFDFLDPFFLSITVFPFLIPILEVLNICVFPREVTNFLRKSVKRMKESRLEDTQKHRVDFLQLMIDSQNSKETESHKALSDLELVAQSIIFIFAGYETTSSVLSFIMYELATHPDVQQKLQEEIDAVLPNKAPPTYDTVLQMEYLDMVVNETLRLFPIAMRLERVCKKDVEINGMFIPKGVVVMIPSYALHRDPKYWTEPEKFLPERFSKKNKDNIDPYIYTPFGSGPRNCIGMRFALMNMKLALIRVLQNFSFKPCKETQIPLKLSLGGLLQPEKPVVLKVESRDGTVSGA

[8] = biological target: Cytochrome P450 2C9 (Homo sapiens, UniProt P11712); assay: Inhibition of CYP2C9 (unknown origin) in microsomes; type: ADME
Sequence of Cytochrome P450 2C9 (P11712 whole entry): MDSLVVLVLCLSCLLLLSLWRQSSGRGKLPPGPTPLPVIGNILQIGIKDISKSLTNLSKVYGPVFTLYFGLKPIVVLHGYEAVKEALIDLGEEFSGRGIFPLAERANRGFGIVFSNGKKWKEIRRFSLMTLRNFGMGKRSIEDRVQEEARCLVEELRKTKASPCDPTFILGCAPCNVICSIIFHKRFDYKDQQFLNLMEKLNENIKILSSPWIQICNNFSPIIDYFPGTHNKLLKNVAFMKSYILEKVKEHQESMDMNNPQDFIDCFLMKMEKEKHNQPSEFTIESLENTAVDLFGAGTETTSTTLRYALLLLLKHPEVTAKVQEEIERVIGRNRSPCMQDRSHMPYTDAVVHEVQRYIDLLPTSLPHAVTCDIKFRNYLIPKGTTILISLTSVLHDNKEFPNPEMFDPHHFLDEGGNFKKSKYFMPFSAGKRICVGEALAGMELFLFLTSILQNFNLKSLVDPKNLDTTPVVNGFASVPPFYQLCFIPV

[9] = tested on: Rattus norvegicus; assay: Decrease in fed plasma glucose level in Zucker rat sub-chronic fa/fa prediabetic model at 10 mg/kg, po qd for 4 days measured on day 5 relative to control; type: functional; set-up: scale not given: the % may be the effect or the level left
[10] = tested on: Rattus norvegicus; assay: Decrease in fed plasma free fatty acid level in Zucker rat sub-chronic fa/fa prediabetic model at 10 mg/kg, po qd for 4 days measured on day 5 relative to control; type: functional; set-up: scale not given: the % may be the effect or the level left
[11] = tested on: Rattus norvegicus; assay: Toxicity in Zucker rat sub-chronic fa/fa prediabetic model assessed as increase in body weight at 10 mg/kg, po qd for 4 days; type: organism-based; conditions: in vivo, 96 h
[12] = tested on: Rattus norvegicus; assay: Antidiabetic activity in Zucker rat sub-chronic fa/fa prediabetic model assessed as decrease in plasma glucose AUC (0 to 120 mins) at 10 mg/kg, po qd during 10 days study by OGTT relative to control; type: functional; set-up: scale not given: the % may be the effect or the level left
[13] = tested on: Rattus norvegicus; assay: Toxicity in Zucker rat sub-chronic fa/fa prediabetic model assessed as increase in body weight at 10 mg/kg, po qd during 10 days study; type: organism-based; conditions: in vivo, 240 h
[14] = tested on: Rattus norvegicus; assay: Toxicity in Zucker rat sub-chronic fa/fa prediabetic model assessed as increase in food consumption at 10 mg/kg, po qd during 10 days study; type: organism-based; conditions: in vivo, 240 h
[15] = tested on: Rattus norvegicus; assay: Toxicity in Zucker rat sub-chronic fa/fa prediabetic model assessed as effect on liver enzymes at 10 mg/kg, po qd during 10 days study; type: organism-based; conditions: in vivo, 240 h
[16] = biological target: Steroid hormone receptor ERR2 (Homo sapiens, UniProt O95718); assay: Antagonist activity at recombinant GST-tagged human ERRbeta LBD assessed as inhibition of fluorescein-labeled coactivator peptide recruitment preincubated with enzyme followed by coactivator addition by LanthaScreen TR-FRET assay
Sequence of Steroid hormone receptor ERR2 (O95718 whole entry, the tested form may be a part): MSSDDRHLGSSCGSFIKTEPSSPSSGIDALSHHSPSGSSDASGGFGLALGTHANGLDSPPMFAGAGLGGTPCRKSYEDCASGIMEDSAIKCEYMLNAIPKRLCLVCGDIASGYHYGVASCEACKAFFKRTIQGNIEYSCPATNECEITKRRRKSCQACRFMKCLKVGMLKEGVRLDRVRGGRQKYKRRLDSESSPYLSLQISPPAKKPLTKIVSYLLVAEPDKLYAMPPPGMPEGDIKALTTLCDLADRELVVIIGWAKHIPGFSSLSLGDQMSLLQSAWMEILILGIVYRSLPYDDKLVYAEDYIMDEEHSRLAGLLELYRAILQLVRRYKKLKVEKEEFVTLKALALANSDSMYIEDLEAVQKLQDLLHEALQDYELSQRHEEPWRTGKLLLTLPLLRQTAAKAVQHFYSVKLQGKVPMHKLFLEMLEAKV

| SMILES | IC50 [1] | Activity [2] | Activity [3] | other results |
| --- | --- | --- | --- | --- |
| NS(=O)(=O)NC(=O)CN1C(=O)S/C(=C\c2ccc3c(cnn3Cc3ccc(Cl)cc3C(F)(F)F)c2)C1=O | 19 nM | -51% | -14% |  |
| CC(=O)NS(=O)(=O)CN1C(=O)S/C(=C\c2ccc3c(cnn3Cc3ccc(Cl)cc3C(F)(F)F)c2)C1=O | 8 nM | -58% | -37% |  |
| O=C1S/C(=C\c2ccc3c(cnn3Cc3ccc(Cl)cc3C(F)(F)F)c2)C(=O)N1C[C@H]1COCCN1 | 15 nM | -52% | -61% | inhibition (INH) [4]: Active; Cp [5]: < 100 ng/mL |
| CN1CC[C@H](N2C(=O)S/C(=C\c3ccc4c(cnn4Cc4ccc(Cl)cc4C(F)(F)F)c3)C2=O)[C@H](F)C1 (relative stereo) | 45 nM | -73% | -57% | inhibition (INH) [6]: Not Active; inhibition (INH) [7]: Not Active; inhibition (INH) [4]: Not Active; inhibition (INH) [8]: Not Active; Activity [9]: -43%; Activity [10]: -35%; Activity [11]: Non-Toxic |
| COc1ccc(Cn2ncc3cc(/C=C4\SC(=O)N(C5CCC(C(=O)O)CC5)C4=O)ccc32)c(C(F)(F)F)c1 (configuration not stated) |  | -11% | 32% |  |
| O=C(O)C1CCC(N2C(=O)S/C(=C\c3ccc4c(cnn4Cc4ccc(Cl)cc4C(F)(F)F)c3)C2=O)CC1 (configuration not stated) | 12 nM | -30% | -19% |  |
| C[C@H](N)CN1C(=O)S/C(=C\c2ccc3c(cnn3Cc3ccc(Cl)cc3C(F)(F)F)c2)C1=O | 24 nM | -60% | -55% | Cp [5]: < 100 ng/mL |
| O=C1S/C(=C\c2ccc3c(cnn3Cc3ccc(Cl)cc3C(F)(F)F)c2)C(=O)N1C1CCNCC1 | 16 nM |  |  | inhibition (INH) [6]: Active; inhibition (INH) [7]: Active; inhibition (INH) [8]: Active |
| O=C1S/C(=C\c2ccc3c(cnn3Cc3ccc(Cl)cc3C(F)(F)F)c2)C(=O)N1CCN1CCOCC1 | 43 nM |  |  |  |
| COc1ccc(Cn2ncc3cc(/C=C4\SC(=O)N(CC(=O)O)C4=O)ccc32)c(C(F)(F)F)c1 | 9 nM | -9% | 21% |  |
| COc1ccc(Cn2ncc3cc(/C=C4\SC(=O)N(CCN5CCCC5)C4=O)ccc32)c(C(F)(F)F)c1 | 46 nM |  |  |  |
| N[C@@H](CO)CN1C(=O)S/C(=C\c2ccc3c(cnn3Cc3ccc(Cl)cc3C(F)(F)F)c2)C1=O | 23 nM | -33% | -45% | inhibition (INH) [4]: Active; Cp [5]: < 100 ng/mL |
| O=C(CN1C(=O)S/C(=C\c2ccc3c(cnn3Cc3ccc(Cl)cc3C(F)(F)F)c2)C1=O)NS(=O)(=O)N1CCCC1 | 25 nM | -47% | 1% | Drug uptake [5]: Active |
| Cc1nn(Cc2ccc(Cl)cc2C(F)(F)F)c2ccc(/C=C3\SC(=O)N(CC(=O)O)C3=O)cc12 | 28 nM | -18% | -4% |  |
| O=C1S/C(=C\c2ccc3c(cnn3Cc3ccc(Cl)cc3C(F)(F)F)c2)C(=O)N1[C@@H]1CCNC[C@H]1O (relative stereo) | 25 nM |  |  | inhibition (INH) [4]: Active |
| CS(=O)(=O)NC(=O)CN1C(=O)S/C(=C\c2ccc3c(cnn3Cc3ccc(Cl)cc3C(F)(F)F)c2)C1=O | 18 nM | -14% | 13% |  |

| SMILES | IC50 [1] | Activity [2] | Activity [3] | other results |
| --- | --- | --- | --- | --- |
| O=C1S/C(=C\c2ccc3c(cnn3Cc3ccc(Cl)cc3C(F)(F)F)c2)C(=O)N1CCN1CCCC1 | 17 nM | -49% | -30% | inhibition (INH) [4]: Active; Cp [5]: < 100 ng/mL |
| CN1CC[C@@H](N2C(=O)S/C(=C\c3ccc4c(cnn4Cc4ccc(Cl)cc4C(F)(F)F)c3)C2=O)[C@H](O)C1 (relative stereo) | 23 nM |  |  | inhibition (INH) [4]: Active |
| O=C(O)CN1C(=O)S/C(=C\c2ccc3c(cnn3Cc3ccc(Cl)cc3C(F)(F)F)c2)C1=O | 9 nM | -50% | -14% |  |
| O=C1S/C(=C\c2ccc3c(cnn3Cc3ccc(Cl)cc3C(F)(F)F)c2)C(=O)N1C1CCN(CCO)CC1 | 15 nM | -77% | -40% | inhibition (INH) [4]: Active |
| CN(C)S(=O)(=O)NC(=O)CN1C(=O)S/C(=C\c2ccc3c(cnn3Cc3ccc(Cl)cc3C(F)(F)F)c2)C1=O | 23 nM | -29% | -46% |  |
| O=C(O)CN1C(=O)S/C(=C\c2ccc3c(cnn3Cc3ccc(C(F)(F)F)cc3C(F)(F)F)c2)C1=O | 26 nM |  |  |  |
| CN1CCC(N2C(=O)S/C(=C\c3ccc4c(cnn4Cc4ccc(Cl)cc4C(F)(F)F)c3)C2=O)CC1 | 19 nM |  |  | inhibition (INH) [7]: Active |
| Cc1nn(Cc2ccc(Cl)cc2C(F)(F)F)c2ccc(/C=C3\SC(=O)N(CC(=O)NS(=O)(=O)N4CCCC4)C3=O)cc12 | 54 nM | -10% | -23% | Drug uptake [5]: Active |
| CN1CC[C@H](N2C(=O)S/C(=C\c3ccc4c(cnn4Cc4ccc(Cl)cc4C(F)(F)F)c3)C2=O)[C@@H](F)C1 | 22 nM | -52% | -51% | Activity [9]: -27%; Activity [12]: -37%; Activity [13]: Toxic; Activity [14]: Toxic; Activity [15]: Toxic |
| O=C1S/C(=C\c2ccc3c(cnn3Cc3ccc(Cl)cc3C(F)(F)F)c2)C(=O)N1[C@@H]1CCNC[C@H]1F (relative stereo) | 34 nM |  |  | IC50 [4]: 21000 nM |
| O=C1S/C(=C\c2ccc3c(cnn3Cc3ccc(Cl)cc3C(F)(F)F)c2)C(=O)N1Cc1nnn[nH]1 | 13 nM | -44% | -51% |  |
| O=C1S/C(=C\c2ccc3c(cnn3Cc3ccc(C(F)(F)F)cc3C(F)(F)F)c2)C(=O)N1CCN1CCCC1 | 580 nM |  |  |  |
| CCC(=C(c1ccc(O)cc1)c1ccc(OCCN(C)C)cc1)c1ccccc1 |  |  |  | IC50 [16]: 886 nM |
| CN1CCC[C@H]1CN1C(=O)S/C(=C\c2ccc3c(cnn3Cc3ccc(Cl)cc3C(F)(F)F)c2)C1=O | 5 nM | -59% | -37% | Cp [5]: < 100 ng/mL |
| COc1ccc(Cn2ncc3cc(/C=C4\SC(=O)N(CCN5CCOCC5)C4=O)ccc32)c(C(F)(F)F)c1 | 8 nM | -21% | -19% |  |
